The values that follow come from patent US8865426B2, “Screening method using gelatinase-mediated EphA4 cleavage reaction as an indicator” (Eisai R&D Management Co., Ltd., priority 2010, dated 2014).

The subject of test [1] is gelatinase (MMP-2, MMP-9)-mediated EphA4 ectodomain cleavage reaction. The experiment in a line: Western blot assay of NMDA-induced EphA4 cleavage (EphA4 endodomain fragment) in hippocampal primary cultured neurons. It is filed as cell-based, rat. The protocol:
(§1) With the aim of identifying proteases which cleave off the EphA4 ectodomain in a neuronal activity-dependent manner, analysis was first performed using a specific inhibitor of gelatinase family molecules (MMP-2, MMP-9) having important functions in the brain. Neurostimulation was performed with 50 μM NMDA, and the inhibitor used was mmp-2/9 Inhibitor II ((2R)-[(4-biphenylylsulfonyl)amino]-N-hydroxy-3-phenylpropionamide, Merck). For detection of cleavage reaction, two types of antibody-based assays were used, i.e., Western blot assay using an antibody capable of recognizing the EphA4 endodomain and ELISA assay using an antibody capable of recognizing the EphA4 ectodomain.
(§2) Hippocampi were isolated from SD rats at 18 days of embryonic age (Charles River Laboratories, Inc.) and provided for culture. More specifically, fetuses were aseptically taken from pregnant rats. From these fetuses, brains were excised and soaked in 20% FBS (Hyclone)/HBSS (SIGMA). From the excised brains, hippocampi were collected under a stereoscopic microscope. […] On the other hand, the neuronal cells were collected with PBS and then quantified for their protein levels, and 10 μg aliquots were subjected to SDS-PAGE, followed by Western blotting with an anti-EphA4 antibody capable of recognizing the endodomain.
For orientation: A western blot detects proteins with antibodies after separation by electrophoresis.

Test [2] shares this test system. The experiment in a line: ELISA assay of NMDA-induced EphA4 cleavage (EphA4 ectodomain in cultured solution) in hippocampal primary cultured neurons. It is filed as cell-based, rat. The protocol:
as §1, §2

In the case of `CN[C@H](CC(=O)O)C(=O)O` [NMDA], in test [1] (hippocampal neuronal cells, 50 μM NMDA, 30 minutes, FIG. 2), the “induction of EphA4 cleavage reaction (EphA4 endodomain fragment detected)” value is listed as “induced”.
Turning to `O=C(NO)[C@@H](Cc1ccccc1)NS(=O)(=O)c1ccc(-c2ccccc2)cc1` [mmp-2/9 Inhibitor II, (2R)-[(4-Biphenylylsulfonyl)amino]-N-hydroxy-3-phenylpropionamide], in test [1] (hippocampal neuronal cells stimulated with 50 μM NMDA, 0, 1, 5, 10 or 25 μM inhibitor added, FIG. 2A), the “EphA4 cleavage reaction (EphA4 endodomain fragment, Western blot)” value is on record as “inhibited in a concentration-dependent manner”. Moreover, in test [2] (concentration not given), the “neuronal activity-dependent EphA4 ectodomain cleavage reaction in hippocampal primary cultured neurons (summary statement)” value is “completely inhibited”. In addition, in test [2] (hippocampal neuronal cells stimulated with 50 μM NMDA, 5 μM inhibitor, FIG. 2B), the “EphA4 cleavage event detected by ELISA with antibody recognizing the EphA4 ectodomain” value is “completely inhibited”.
